This is an account of results in patent US20220280492A1, “THERAPEUTIC AGENT FOR CANCER HAVING RESISTANCE TO ANTI-CCR4 ANTIBODY” (DAIICHI SANKYO COMPANY, LIMITED, priority 2019, published 2022).

Test [1] deals with recurrent or refractory ATL patients. As to the kind of experiment: multicenter open-label phase I trial of the clinical compound in non-Hodgkin's lymphoma patients; ATL patients analyzed. Type of test: in vivo, human. Also on record: key to Determination of effect on lesion site: Peripheral blood image / Best overall effect / Determination of effect on lesion site: Nodular lesion / Determination of effect on lesion site: Extranodal lesion: CR: Complete Remission; CRu: Uncertified Complete Remission; PR: Partial Remission; SD: Stable Disease; PD: Progressive Disease; NE: Not Evaluable. The method, then:
Clinical trials which administer the clinical compound to patients with non-Hodgkin's lymphoma were carried out. ATL patients of the non-Hodgkin's lymphoma patients receiving the clinical compound were analyzed.
The clinical trial is a multicenter open-label phase I trial for the purpose of studying, e.g., safety, tolerability, pharmacokinetics and anti-tumor effect, by administering the clinical compound to patients with recurrent or refractory non-Hodgkin's lymphoma (no standard treatment is established or refractory or intolerant to a standard treatment) including ATL patients. […] In this manner, dose-limiting toxicity and recommended dose for the next phase are determined in the clinical trial.
The clinical compound was orally administered to individual test subjects once a day for consecutive days until unacceptable toxicity or disease progression was confirmed. […] The anti-tumor effect was observed principally, at intervals of 8 weeks, and evaluated based on “Definition, prognostic factors, treatment, and response criteria of adult T-cell leukemia-lymphoma: a proposal from an international consensus meeting” (J Clin Oncol. 2009; 27[3]: 453-9).
The dose of the first cohort was determined to be 150 mg/time/day based on the results of a nonclinical study. The dose of the next cohort was determined by comprehensively evaluating the dose recommended by the modified continual reassessment method (mCRM) based on information of the presence or absence of dose-limited toxicity and all safety data (including adverse event except dose limiting toxicity and abnormal laboratory test values), pharmacokinetics, biomarkers, and effectiveness data obtained up to the time point, and discussing with a sponsors, investigators and external experts.
The dosage amount of the clinical compound was in advance determined per cohort. As the clinical compound, two types of capsules different in dose were provided in combination. As the administration method, oral administration once a day was carried out for consecutive days.
The therapeutic effect on ATL was determined based on “Definition, prognostic factors, treatment, and response criteria of adult T-cell leukemia-lymphoma: a proposal from an international consensus meeting” (J Clin Oncol. 2009; 27[3]: 453-9). Before initiation of the clinical trial, necessary examinations, which were selected from CT scan, bone marrow examination, endoscopic inspection and blood test in accordance with the disease state of the test subject, were carried out to determine a target lesion. A change in the lesion was assessed principally at intervals of 8 weeks.

Test [2] concerns ATL patients with a history of treatment with the anti-CCR4 antibody mogamulizumab. The settings on record: phase II trials; cited from earlier work.
Where [3] appears, read: ATL patient No. 1, 150 mg oral once a day, treatment history: mogamulizumab present, lenalidomide present.
[4] abbreviates: ATL patient No. 2, 150 mg oral once a day, treatment history: mogamulizumab present, no lenalidomide.
Where [5] appears, read: ATL patient No. 9, 200 mg oral once a day, treatment history: no mogamulizumab, lenalidomide present.

For the molecule `Cc1cc(C)c(CNC(=O)c2cc(Cl)c3c(c2C)O[C@@](C)([C@H]2CC[C@H](N(C)C)CC2)O3)c(=O)[nH]1.Cc1ccc(S(=O)(=O)O)cc1` [clinical compound, (2R)-7-chloro-2-[trans-4-(dimethylamino)cyclohexyl]-N-[(4,6-dimethyl-2-oxo-1,2-dihydropyridin-3-yl)methyl]-2,4-dimethyl-1,3-benzodioxol-5-carboxamide p-toluenesulfonate], in test [1] (9 recurrent or refractory ATL patients), the “median value of PFS” value is listed as 16.1 weeks. Also, in test [1] (setting [3]), the Best overall effect result was “PD”, the “Determination of effect on lesion site: Extranodal lesion” value is “PD” and the “Determination of effect on lesion site: Nodular lesion” value was “PD”. Moreover, in test [1] (setting [4]), the Best overall effect result is listed as “PR”, the “Determination of effect on lesion site: Extranodal lesion” value was “PR” and the “Determination of effect on lesion site: Nodular lesion” value is on record as “Cru”. Further, in test [1] (setting [5]), the Best overall effect entry is on record as “PR” and the “Determination of effect on lesion site: Peripheral blood image” value is “PR”. Moreover, the “patients evaluated as SD” value in test [1] (of 6 patients with a history of treatment with mogamulizumab) was determined as 2 patients. The responders in test [1] (of 6 patients with a history of treatment with mogamulizumab (CRu: 1 patient, PR: 2 patients)) is reported as 3 patients. For the same molecule, the response rate in test [1] (recurrent or refractory ATL patients evaluable for effectiveness, 4 out of 9 patients [CRu: 1, PR: 3], 95%CI 13.7 to 78.8, intermediate data, oral once a day) is on record as 44.4%. Besides, the “disease control rate (percentage of patients exerting an effect of SD or more)” value in test [1] (recurrent or refractory ATL patients, 7 out of 9 patients, intermediate data) turned out to be 77.8%.
As for `Nc1cccc2c1CN(C1CCC(=O)NC1=O)C2=O` (centres unmarked) [lenalidomide], the response rate entry in test [2] is recorded as “about 18%”.
